Laboratory results reported in patent US20100298141A1, “SUBSTITUTED PYRIDINE N-OXIDE HERBICIDES” (E. I. DU PONT DE NEMOURS AND COMPANY, priority 2007, published 2010).

How the values were obtained:
velvetleaf [1] = experiment: Test A pre-/postemergence greenhouse test; format: in vivo, Abutilon theophrasti; details: for Plant response rating, Velvetleaf: 0 to 100 scale where 0 is no effect and 100 is complete control; for Velvetleaf plant response rating: 0 to 100 scale
In short: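 Visual injury ratings against untreated controls, taken roughly ten days after treatment in greenhouse. Plants were sprayed postemergence at one- to two-leaf stage (2–10 cm tall); at the same time, seeded loam/sand soil received a directed preemergence spray. Formulation: non-phytotoxic solvent mixture with surfactant.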

blackgrass = experiment: Test C pre-/postemergence test; format: in vivo, Alopecurus myosuroides
In short: (§1)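 Compounds in a non-phytotoxic solvent with surfactant applied preemergence to seeded pots and, at the same time, postemergence to plants 2–18 cm tall (1- to 4-leaf stage). Paddy tests: pots flooded to 3 cm, compound applied into the water, depth held throughout.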

downy brome = experiment: Test C pre-/postemergence test; format: in vivo, Bromus tectorum
In short: as §1

green foxtail = experiment: Test C pre-/postemergence test; format: in vivo, Setaria viridis
In short: as §1

Italian ryegrass = experiment: Test C pre-/postemergence test; format: in vivo, Lolium multiflorum
In short: as §1

wild oat = experiment: Test C pre-/postemergence test; format: in vivo, Avena fatua
In short: as §1

catchweed bedstraw = experiment: Test C pre-/postemergence test; format: in vivo, Galium aparine
In short: as §1

cocklebur = experiment: Test C pre-/postemergence test; format: in vivo, Xanthium strumarium
In short: as §1

corn = experiment: Test C pre-/postemergence test; format: in vivo, Zea mays
In short: as §1

woolly cupgrass = experiment: Test C pre-/postemergence test; format: in vivo, Eriochloa villosa
In short: as §1

giant foxtail = experiment: Test C pre-/postemergence test; format: in vivo, Setaria faberii
In short: as §1

johnsongrass = experiment: Test C pre-/postemergence test; format: in vivo, Sorghum halepense
In short: as §1

morningglory = experiment: Test C pre-/postemergence test; format: in vivo, Ipomoea coccinea
In short: as §1

soybean = experiment: Test C pre-/postemergence test; format: in vivo, Glycine max
In short: as §1

velvetleaf [2] = experiment: Test C pre-/postemergence test; format: in vivo, Abutilon theophrasti
In short: as §1

duck salad = experiment: Test C flooded paddy test; format: in vivo, Heteranthera limosa; details: Flood
In short: (§2)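 Test compounds are applied straight into paddy water held 3 cm above the soil surface, with that flood maintained for the whole test. After 13 to 15 days in the greenhouse, each species is scored visually relative to controls.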

barnyardgrass = experiment: Test C flooded paddy test; format: in vivo, Echinochloa crus-galli; details: Flood
In short: as §2

[3] = 62 g ai/ha, Preemergence, scale 0 to 100
[4] = 125 g ai/ha, preemergence, scale 0 (no effect) to 100 (complete control)
[5] = Preemergence, 31 g ai/ha, scale 0 to 100 (0 no effect, 100 complete control)
[6] = preemergence, 250 g ai/ha, scale 0 (no effect) to 100 (complete control)
[7] = 62 g ai/ha, scale 0 to 100 (0 no effect, 100 complete control)
[8] = 250 g ai/ha, scale 0 to 100, 0 no effect, 100 complete control, 13 to 15 days

CCc1cc[n+]([O-])c(S(=O)(=O)Cc2c(C(F)(F)F)nn(C)c2OCC(F)(F)F)c1 [Compound 60]
Plant response rating, Velvetleaf (velvetleaf [1]; Postemergence, 125 g ai/ha): 60
Velvetleaf plant response rating (velvetleaf [1]; Postemergence, 500 g ai/ha, 0 is no effect, 100 is complete control): 70
Velvetleaf plant response rating (velvetleaf [1]; Preemergence, 125 g ai/ha, 0 no effect, 100 complete control): 70
Plant response rating, Velvetleaf (velvetleaf [1]; Preemergence, 500 g ai/ha): 100
Blackgrass plant response rating (blackgrass; [3]): 90
Blackgrass plant response rating (blackgrass; [4]): 100
Plant response rating, Blackgrass (blackgrass; [5]): 85
Blackgrass plant response rating (blackgrass; [6]): 100
Bromegrass, Downy plant response rating (downy brome; [3]): 55
Bromegrass, Downy plant response rating (downy brome; [4]): 55
Plant response rating, Bromegrass, Downy (downy brome; [5]): 0
Bromegrass, Downy plant response rating (downy brome; [6]): 90
Foxtail, Green plant response rating (green foxtail; [3]): 100
Foxtail, Green plant response rating (green foxtail; [4]): 100
Plant response rating, Foxtail, Green (green foxtail; [5]): 85
Foxtail, Green plant response rating (green foxtail; [6]): 100
Ryegrass, Italian plant response rating (Italian ryegrass; [3]): 75
Ryegrass, Italian plant response rating (Italian ryegrass; [4]): 80
Plant response rating, Ryegrass, Italian (Italian ryegrass; [5]): 20
Ryegrass, Italian plant response rating (Italian ryegrass; [6]): 90
Oat, Wild plant response rating (wild oat; [3]): 85
Oat, Wild plant response rating (wild oat; [4]): 90
Plant response rating, Oat, Wild (wild oat; [5]): 40
Oat, Wild plant response rating (wild oat; [6]): 98
Galium plant response rating (catchweed bedstraw; [3]): 100
Galium plant response rating (catchweed bedstraw; [4]): 100
Plant response rating, Galium (catchweed bedstraw; [5]): 0
Galium plant response rating (catchweed bedstraw; [6]): 100
Cocklebur plant response rating (cocklebur; [3]): 0
Cocklebur plant response rating (cocklebur; [4]): 0
Plant response rating, Cocklebur (cocklebur; [5]): 0
Cocklebur plant response rating (cocklebur; [6]): 0
Corn plant response rating (corn; [3]): 20
Corn plant response rating (corn; [4]): 55
Plant response rating, Corn (corn; [5]): 0
Corn plant response rating (corn; [6]): 98
Cupgrass, Woolly plant response rating (woolly cupgrass; [3]): 100
Cupgrass, Woolly plant response rating (woolly cupgrass; [4]): 100
Plant response rating, Cupgrass, Woolly (woolly cupgrass; [5]): 100
Cupgrass, Woolly plant response rating (woolly cupgrass; [6]): 100
Foxtail, Giant plant response rating (giant foxtail; [3]): 100
Foxtail, Giant plant response rating (giant foxtail; [4]): 100
Plant response rating, Foxtail, Giant (giant foxtail; [5]): 100
Foxtail, Giant plant response rating (giant foxtail; [6]): 100
Johnsongrass plant response rating (johnsongrass; [3]): 100
Johnsongrass plant response rating (johnsongrass; [4]): 100
Plant response rating, Johnsongrass (johnsongrass; [5]): 100
Johnsongrass plant response rating (johnsongrass; [6]): 100
Morningglory plant response rating (morningglory; [3]): 90
Morningglory plant response rating (morningglory; [4]): 100
Plant response rating, Morningglory (morningglory; [5]): 50
Morningglory plant response rating (morningglory; [6]): 100
Soybean plant response rating (soybean; [3]): 50
Soybean plant response rating (soybean; [4]): 50
Soybean plant response rating (soybean; [6]): 85
Velvetleaf plant response rating (velvetleaf [2]; [3]): 40
Velvetleaf plant response rating (velvetleaf [2]; [4]): 100
Plant response rating, Velvetleaf (velvetleaf [2]; [5]): 0
Velvetleaf plant response rating (velvetleaf [2]; [6]): 100
Plant response rating, Ducksalad (duck salad; [7]): 0
Plant response rating, Ducksalad (duck salad; [8]): 40
Plant response rating, Barnyardgrass (barnyardgrass; [7]): 20
Plant response rating, Barnyardgrass (barnyardgrass; [8]): 45
